Measured values: ChEMBL document CHEMBL1201862, “PubChem BioAssay data set” (2004)
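Test compounds were applied to cells in 96-well plates for 48 hours at 5 doses. Here, GI50 denotes the concentration required for 50% inhibition of growth.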 Calls of active or inactive are those of the source. No stated cut-off is given here; in the data, active = GI50 up to about 1.1 µM and inactive = higher.

What was measured:
Experiment in all cases: growth of human tumour cells (NCI), 48 h
HL-60 = tested on: HL-60
SK-MEL-5 = tested on: SK-MEL-5
BT-549 = tested on: BT-549
SK-MEL-2 = tested on: SK-MEL-2
MDA-MB-435 = tested on: MDA-MB-435
SF-539 = tested on: SF-539
OVCAR-5 = tested on: OVCAR-5
HCT-116 = tested on: HCT-116
COLO 205 = tested on: COLO 205
HCT-15 = tested on: HCT-15
KM12 = tested on: KM12
SNB-19 = tested on: SNB-19
DU-145 = tested on: DU-145
NCI-H522 = tested on: NCI-H522
NCI-H226 = tested on: NCI-H226
PC-3 = tested on: PC-3
OVCAR-4 = tested on: OVCAR-4
UACC-62 = tested on: UACC-62
OVCAR-3 = tested on: OVCAR-3
ACHN = tested on: ACHN
UACC-257 = tested on: UACC-257
Malme-3M = tested on: Malme-3M
IGROV-1 = tested on: IGROV-1
SN12C = tested on: SN12C
SR = tested on: SR
HT-29 = tested on: HT-29
786-0 = tested on: 786-0
HOP-92 = tested on: HOP-92
RPMI-8226 = tested on: RPMI-8226
CAKI-1 = tested on: CAKI-1
SK-OV-3 = tested on: SK-OV-3
MCF7 = tested on: MCF7
HCC 2998 = tested on: HCC 2998
HOP-62 = tested on: HOP-62
M14 = tested on: M14
LOX IMVI = tested on: LOX IMVI
CCRF-CEM = tested on: CCRF-CEM
EKVX = tested on: EKVX
A549 = tested on: A549
K562 = tested on: K562
MDA-MB-231 = tested on: MDA-MB-231
NCI-H460 = tested on: NCI-H460
Hs-578T = tested on: Hs-578T
A498 = tested on: A498
SK-MEL-28 = tested on: SK-MEL-28
U-251 = tested on: U-251
MOLT-4 = tested on: MOLT-4
TK-10 = tested on: TK-10
OVCAR-8 = tested on: OVCAR-8
SF-295 = tested on: SF-295
UO-31 = tested on: UO-31
SW-620 = tested on: SW-620
MDA-N = tested on: MDA-N
NCI/ADR-RES = tested on: NCI/ADR-RES
NCI-H23 = tested on: NCI-H23
SNB-75 = tested on: SNB-75
SF-268 = tested on: SF-268
RXF 393 = tested on: RXF 393
T47D = tested on: T47D

## CCOC(=O)CCN1C(=O)c2ccc(NC(=O)C(=O)O)cc2S1(=O)=O
HL-60
  GI50: > 100 µM (inactive)
SK-MEL-5
  GI50: > 100 µM (inactive)
BT-549
  GI50: > 100 µM (inactive)
SK-MEL-2
  GI50: > 100 µM (inactive)
MDA-MB-435
  GI50: > 100 µM (inactive)
SF-539
  GI50: > 100 µM (inactive)
OVCAR-5
  GI50: > 100 µM (inactive)
HCT-116
  GI50: > 100 µM (inactive)
COLO 205
  GI50: > 100 µM (inactive)
HCT-15
  GI50: > 100 µM
KM12
  GI50: > 100 µM (inactive)
SNB-19
  GI50: > 100 µM (inactive)
DU-145
  GI50: > 100 µM (inactive)
NCI-H522
  GI50: > 100 µM (inactive)
NCI-H226
  GI50: > 100 µM (inactive)
PC-3
  GI50: > 100 µM (inactive)
OVCAR-4
  GI50: > 100 µM (inactive)
UACC-62
  GI50: > 100 µM (inactive)
OVCAR-3
  GI50: > 100 µM (inactive)
ACHN
  GI50: > 100 µM (inactive)
UACC-257
  GI50: > 100 µM (inactive)
Malme-3M
  GI50: > 100 µM (inactive)
IGROV-1
  GI50: > 100 µM (inactive)
SN12C
  GI50: > 100 µM (inactive)
SR
  GI50: > 100 µM (inactive)
HT-29
  GI50: > 100 µM (inactive)
786-0
  GI50: > 100 µM (inactive)
HOP-92
  GI50: > 100 µM (inactive)
RPMI-8226
  GI50: > 100 µM (inactive)
CAKI-1
  GI50: > 100 µM (inactive)
SK-OV-3
  GI50: > 100 µM (inactive)
MCF7
  GI50: > 100 µM (inactive)
HCC 2998
  GI50: > 100 µM (inactive)
HOP-62
  GI50: > 100 µM (inactive)
M14
  GI50: > 100 µM (inactive)
LOX IMVI
  GI50: > 100 µM (inactive)
CCRF-CEM
  GI50: > 100 µM (inactive)
EKVX
  GI50: > 100 µM (inactive)
A549
  GI50: > 100 µM (inactive)
K562
  GI50: > 100 µM (inactive)
MDA-MB-231
  GI50: > 100 µM (inactive)
NCI-H460
  GI50: > 100 µM (inactive)
Hs-578T
  GI50: > 100 µM (inactive)
A498
  GI50: > 100 µM (inactive)
SK-MEL-28
  GI50: > 100 µM (inactive)
U-251
  GI50: > 100 µM (inactive)
MOLT-4
  GI50: > 100 µM (inactive)
TK-10
  GI50: > 100 µM (inactive)
OVCAR-8
  GI50: > 100 µM (inactive)
SF-295
  GI50: > 100 µM (inactive)
UO-31
  GI50: > 100 µM (inactive)
SW-620
  GI50: > 100 µM (inactive)
MDA-N
  GI50: > 100 µM (inactive)
NCI/ADR-RES
  GI50: > 100 µM (inactive)
NCI-H23
  GI50: > 100 µM (inactive)
SNB-75
  GI50: > 100 µM (inactive)

## COc1ccc2c(-c3ccc(OCCN(C)C)cc3)c(Oc3ccccc3)c(=O)oc2c1
SK-MEL-5
  GI50: 2.37 µM (inactive)
BT-549
  GI50: 11 µM (inactive)
SK-MEL-2
  GI50: 5.33 µM (inactive)
MDA-MB-435
  GI50: 2.48 µM (inactive)
SF-539
  GI50: 3.91 µM (inactive)
OVCAR-5
  GI50: 14.2 µM (inactive)
HCT-116
  GI50: 2.58 µM (inactive)
COLO 205
  GI50: 3.01 µM (inactive)
HCT-15
  GI50: 3.48 µM
SF-268
  GI50: 6.18 µM (inactive)
KM12
  GI50: 4.78 µM (inactive)
SNB-19
  GI50: 5.86 µM (inactive)
DU-145
  GI50: 12.2 µM (inactive)
NCI-H522
  GI50: 3.48 µM (inactive)
NCI-H226
  GI50: 16.1 µM (inactive)
PC-3
  GI50: 6.12 µM (inactive)
OVCAR-4
  GI50: 16.9 µM (inactive)
UACC-62
  GI50: 2.78 µM (inactive)
OVCAR-3
  GI50: 7.64 µM (inactive)
ACHN
  GI50: 10.2 µM (inactive)
UACC-257
  GI50: 2.09 µM (inactive)
Malme-3M
  GI50: 3.12 µM (inactive)
IGROV-1
  GI50: 5.42 µM (inactive)
SN12C
  GI50: 6.71 µM (inactive)
SR
  GI50: 2.07 µM (inactive)
HT-29
  GI50: 7.59 µM (inactive)
786-0
  GI50: 2.87 µM (inactive)
HOP-92
  GI50: 9.53 µM (inactive)
RPMI-8226
  GI50: 4.25 µM (inactive)
CAKI-1
  GI50: 8.67 µM (inactive)
RXF 393
  GI50: 4.76 µM (inactive)
SK-OV-3
  GI50: 6.27 µM (inactive)
MCF7
  GI50: 3.57 µM (inactive)
HCC 2998
  GI50: 3.5 µM (inactive)
HOP-62
  GI50: 13 µM (inactive)
M14
  GI50: 1.64 µM (inactive)
LOX IMVI
  GI50: 3.74 µM (inactive)
CCRF-CEM
  GI50: 3.54 µM (inactive)
EKVX
  GI50: 11.1 µM (inactive)
A549
  GI50: 3.37 µM (inactive)
K562
  GI50: 3.07 µM (inactive)
MDA-MB-231
  GI50: 3.15 µM (inactive)
NCI-H460
  GI50: 7.64 µM (inactive)
Hs-578T
  GI50: 6.18 µM (inactive)
A498
  GI50: 13.4 µM (inactive)
SK-MEL-28
  GI50: 2.31 µM (inactive)
U-251
  GI50: 2.82 µM (inactive)
MOLT-4
  GI50: 2.71 µM (inactive)
TK-10
  GI50: 9.79 µM (inactive)
OVCAR-8
  GI50: 10.5 µM (inactive)
SF-295
  GI50: 3.17 µM (inactive)
UO-31
  GI50: 4 µM (inactive)
SW-620
  GI50: 4.2 µM (inactive)
NCI/ADR-RES
  GI50: 4.5 µM (inactive)
NCI-H23
  GI50: 12 µM (inactive)
SNB-75
  GI50: 6.95 µM (inactive)
T47D
  GI50: 7.85 µM (inactive)
